Measurements from the NIST ThermoML archive (doi:10.1021/acs.jced.9b00511).
Numbers after ± are expanded uncertainties.

Tests used:
[1] = wn = mass fraction of the nth substance listed; conditions: Wilhelmy Plate
[2] = Wilhelmy Plate

CC(O)CN(C)C (stereo not given) [1-(dimethylamino)-2-propanol] + O
surface tension liquid-gas [mN/m], [1]
Conditions | 303.2 K | 308.2 K | 313.2 K | 318.2 K | 323.2 K
w1 = 0.3 | 36.2 ± 0.4 | 35.4 ± 0.4 | 34.6 ± 0.4 | 33.9 ± 0.4 | 33.2 ± 0.4
w1 = 0.4 | 33.5 ± 0.4 | 32.7 ± 0.4 | 32.1 ± 0.4 | 31.5 ± 0.4 | 30.9 ± 0.4
w1 = 0.5 | 31.5 ± 0.4 | 31 ± 0.4 | 30.2 ± 0.4 | 29.6 ± 0.4 | 29.1 ± 0.4
w1 = 1 | 24 ± 0.4 | 23.2 ± 0.4 | 22.6 ± 0.4 | 22 ± 0.4 | 21.3 ± 0.4

C[N+](C)(C)C.NCC(=O)[O-] [tetramethylammonium glycinate]
[2]
Conditions | surface tension liquid-gas [mN/m]
303.2 K | 56.2 ± 0.4
308.2 K | 55.6 ± 0.4
313.2 K | 55.1 ± 0.4
318.2 K | 54.5 ± 0.4
323.2 K | 53.9 ± 0.4

C[N+](C)(C)C.NCC(=O)[O-] [tetramethylammonium glycinate] + O
surface tension liquid-gas [mN/m], [1]
Conditions | w1 = 0.025 | w1 = 0.05 | w1 = 0.075 | w1 = 0.1 | w1 = 0.15 | w1 = 0.2 | w1 = 0.4 | w1 = 0.6 | w1 = 0.8 | w1 = 1
303.2 K | 67.8 ± 1 | 65.4 ± 0.4 | 64.1 ± 0.8 | 62.7 ± 0.5 | 61.6 ± 0.5 | 60.2 ± 0.3 | 58.5 ± 0.3 | 57.6 ± 0.4 | 56.9 ± 0.4 | 56.2 ± 0.4
308.2 K | 66.6 ± 1 | 64.3 ± 0.8 | 62.9 ± 0.6 | 61.6 ± 0.4 | 60.6 ± 0.4 | 59.5 ± 0.3 | 57.8 ± 0.3 | 56.9 ± 0.4 | 56.3 ± 0.4 | 55.6 ± 0.4
313.2 K | 65.4 ± 0.9 | 63.3 ± 0.7 | 62.2 ± 0.6 | 60.6 ± 0.4 | 59.7 ± 0.4 | 58.8 ± 0.3 | 57.1 ± 0.3 | 56.2 ± 0.4 | 55.8 ± 0.4 | 55.1 ± 0.4
318.2 K | 64.3 ± 0.7 | 62.5 ± 0.7 | 61 ± 0.6 | 59.8 ± 0.4 | 58.9 ± 0.4 | 58.1 ± 0.3 | 56.5 ± 0.3 | 55.8 ± 0.4 | 55.2 ± 0.4 | 54.5 ± 0.4
323.2 K | 62.3 ± 0.6 | 61.1 ± 0.6 | 60 ± 0.4 | 58.7 ± 0.4 | 57.9 ± 0.4 | 57.1 ± 0.3 | 56 ± 0.3 | 55.4 ± 0.4 | 54.6 ± 0.4 | 53.9 ± 0.4

CCCCn1cc[n+](C)c1.NCCCC[C@H](N)C(=O)[O-] [1-butyl-3-methylimidazolium L-lysinate] + O
surface tension liquid-gas [mN/m], [1]
Conditions | w1 = 0.025 | w1 = 0.05 | w1 = 0.075 | w1 = 0.1 | w1 = 0.15 | w1 = 0.2 | w1 = 0.4 | w1 = 0.6 | w1 = 0.8 | w1 = 1
303.2 K | 62.5 ± 1.1 | 59.9 ± 1.1 | 57.3 ± 0.8 | 55.1 ± 0.7 | 52.5 ± 0.6 | 50.1 ± 0.4 | 48.4 ± 0.4 | 47.1 ± 0.4 | 46.4 ± 0.5 | 45.9 ± 0.6
308.2 K | 59.8 ± 0.9 | 57.7 ± 1 | 55.2 ± 0.9 | 53.3 ± 0.6 | 50.9 ± 0.5 | 49.1 ± 0.4 | 47.6 ± 0.4 | 46.4 ± 0.4 | 45.9 ± 0.5 | 45.5 ± 0.5
313.2 K | 57.3 ± 0.7 | 55.5 ± 0.9 | 53.2 ± 0.9 | 51.5 ± 0.6 | 49.3 ± 0.5 | 48.1 ± 0.3 | 46.8 ± 0.4 | 45.7 ± 0.4 | 45.5 ± 0.5 | 45.1 ± 0.5
318.2 K | 54.3 ± 0.8 | 52.5 ± 0.8 | 50.8 ± 0.7 | 49.4 ± 0.5 | 47.7 ± 0.4 | 46.8 ± 0.3 | 45.9 ± 0.4 | 45.3 ± 0.4 | 45 ± 0.5 | 44.7 ± 0.5
323.2 K | 51.1 ± 0.7 | 49.6 ± 1.4 | 48.5 ± 0.4 | 47.3 ± 0.4 | 46.2 ± 0.4 | 45.5 ± 0.3 | 45.1 ± 0.4 | 44.9 ± 0.4 | 44.6 ± 0.5 | 44.2 ± 0.5

CC(O)CN(C)C (stereo not given) [1-(dimethylamino)-2-propanol]
[2]
Conditions | surface tension liquid-gas [mN/m]
303.2 K | 24 ± 0.4
308.2 K | 23.2 ± 0.4
313.2 K | 22.6 ± 0.4
318.2 K | 22 ± 0.4
323.2 K | 21.3 ± 0.4

CCCCn1cc[n+](C)c1.NCCCC[C@H](N)C(=O)[O-] [1-butyl-3-methylimidazolium L-lysinate]
[2]
Conditions | surface tension liquid-gas [mN/m]
303.2 K | 45.9 ± 0.6
308.2 K | 45.5 ± 0.5
313.2 K | 45.1 ± 0.5
318.2 K | 44.7 ± 0.5
323.2 K | 44.2 ± 0.5

CCCCn1cc[n+](C)c1.NCC(=O)[O-] [1-butyl-3-methylimidazolium glycinate] + O
surface tension liquid-gas [mN/m], [1]
Conditions | w1 = 0.025 | w1 = 0.05 | w1 = 0.075 | w1 = 0.1 | w1 = 0.15 | w1 = 0.2 | w1 = 0.4 | w1 = 0.6 | w1 = 0.8 | w1 = 1
303.2 K | 59.4 ± 1.1 | 56.7 ± 0.6 | 53.6 ± 1.3 | 50.7 ± 0.8 | 48.3 ± 0.6 | 46.8 ± 0.3 | 46 ± 0.4 | 45.5 ± 0.4 | 44.7 ± 0.5 | 42.9 ± 0.5
308.2 K | 56.8 ± 1 | 54.3 ± 1.1 | 51.6 ± 1.1 | 49.2 ± 0.6 | 47.3 ± 0.5 | 45.9 ± 0.3 | 45.3 ± 0.4 | 44.9 ± 0.4 | 44.1 ± 0.5 | 42.6 ± 0.5
313.2 K | 54.1 ± 1 | 51.9 ± 1 | 49.5 ± 0.9 | 47.7 ± 0.5 | 46.2 ± 0.4 | 45 ± 0.3 | 44.6 ± 0.4 | 44.3 ± 0.4 | 43.5 ± 0.5 | 42.4 ± 0.5
318.2 K | 51.5 ± 0.8 | 49.6 ± 0.8 | 47.8 ± 0.7 | 46.4 ± 0.5 | 45.1 ± 0.4 | 44.2 ± 0.3 | 43.8 ± 0.4 | 43.4 ± 0.4 | 42.8 ± 0.5 | 42.1 ± 0.5
323.2 K | 48.9 ± 0.7 | 47.3 ± 2.2 | 46.1 ± 0.4 | 45.1 ± 0.4 | 44 ± 0.4 | 43.4 ± 0.3 | 43 ± 0.4 | 42.6 ± 0.4 | 42.1 ± 0.5 | 41.7 ± 0.5

CCCCn1cc[n+](C)c1.NCC(=O)[O-] [1-butyl-3-methylimidazolium glycinate]
[2]
Conditions | surface tension liquid-gas [mN/m]
303.2 K | 42.9 ± 0.5
308.2 K | 42.6 ± 0.5
313.2 K | 42.4 ± 0.5
318.2 K | 42.1 ± 0.5
323.2 K | 41.7 ± 0.5
